Measured values: publication PMC3177598 (Bioorganic & medicinal chemistry letters, 2008)

Tests used:
D2 = D2 (Homo sapiens, UniProt P14416); assay: D2 antagonist activity / D2 inhibition; type: cell-based
mAChRs (M1, M3 and M5) = details: in our hands; ref [8]; cited from earlier work

D2, sequence (P14416 whole entry): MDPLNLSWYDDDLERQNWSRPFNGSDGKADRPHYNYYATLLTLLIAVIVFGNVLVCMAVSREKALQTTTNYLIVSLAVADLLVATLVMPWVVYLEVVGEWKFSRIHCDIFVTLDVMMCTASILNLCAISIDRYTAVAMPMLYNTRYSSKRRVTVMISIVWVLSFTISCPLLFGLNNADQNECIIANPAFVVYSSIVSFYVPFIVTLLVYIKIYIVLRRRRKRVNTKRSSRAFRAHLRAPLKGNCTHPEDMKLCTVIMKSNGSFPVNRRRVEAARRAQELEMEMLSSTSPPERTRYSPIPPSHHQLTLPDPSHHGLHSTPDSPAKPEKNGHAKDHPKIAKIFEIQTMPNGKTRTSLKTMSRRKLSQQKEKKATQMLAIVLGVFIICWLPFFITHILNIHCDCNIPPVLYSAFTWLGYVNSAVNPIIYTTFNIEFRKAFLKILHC

With Cc1ccccc1CN1CCC(N2CCC(n3c(=O)[nH]c4ccc(F)cc43)CC2)CC1 [Compound 20c] the “D2 inhibition (in words)” value (D2) was “no significant D2 inhibition”.
In the case of Cc1ccccc1CN1CCC(N2CCC(n3c(=O)[nH]c4cc(F)ccc43)CC2)CC1 [Compound 20b], the “D2 inhibition (in words)” value (D2) is reported as “no significant D2 inhibition”.
For CC[C@@H]1SC2(CCN(C)CC2)NC1=O [AF267B], the “mAChR subtypes activated (in words)” value (mAChRs (M1, M3 and M5)) is listed as “activates M1, M3 and M5, and is M3 preferring”.
